Source: US20160175318A1, “COMPOSITIONS COMPRISING ANTIBACTERIAL AGENT AND TAZOBACTAM” (WOCKHARDT LIMITED, priority 2013, published 2016)
Read-outs that look alike come from different tables or passages of the source.

Assays:
Experiment in all cases: MIC by agar dilution (CLSI) against highly resistant ESBL strain
Assay type in all cases: cell-based
[1] = system: E. cloacae M-20
Procedure: (§1) The results on activity of cefepime and other cephalosporin antibacterial agents in combination with tazobactam against highly resistant ESBL strains are given Table 1. In a typical study, overnight grown bacterial cultures were diluted appropriately and inoculated on the agar media containing doubling dilutions of the antibiotic. Observation for growth or no growth was performed after 16-20 h of incubation at 35±2° C. in ambient air. The overall procedure was performed as per Clinical and Laboratory Standards Institute (CLSI) recommendations. This experimental was followed for Examples 2-4 and 6 below (Table 2-4 and 7).

[2] = system: E. coli 7MP
Procedure: as §1

[3] = system: E. coli B-89
Procedure: as §1

[4] = system: E. coli B123
Procedure: as §1

[5] = system: E. coli M50
Procedure: as §1

[6] = E. cloacae M-20, with Tazobactam 4 mcg
[7] = E. cloacae M-20, with Tazobactam 8 mcg
[8] = Enterobacter cloacae, M20, 20 h
[9] = E. coli 7MP, with Tazobactam 4 mcg
[10] = E. coli 7MP, with Tazobactam 8 mcg
[11] = E. coli B-89, with Tazobactam 4 mcg
[12] = E. coli B-89, with Tazobactam 8 mcg
[13] = Escherichia coli, B123, E. coli B123, with Tazobactam 4 mcg, read-out: MIC
[14] = Escherichia coli, B123, E. coli B123, with Tazobactam 8 mcg, read-out: MIC
[15] = Escherichia coli, M50, 20 h, Tazobactam 0 mcg (antibiotic alone)

Structure (SMILES)	MIC [1, 6] [µg/mL]	MIC [1, 7] [µg/mL]	MIC [1, 8] [µg/mL]	MIC [2, 9] [µg/mL]	MIC [2, 10] [µg/mL]	MIC ([2]; Escherichia coli, 7MP, 20 h) [µg/mL]	MIC [3, 11] [µg/mL]	MIC [3, 12] [µg/mL]	MIC ([3]; Escherichia coli, B89, 20 h) [µg/mL]	MIC ([4]; Escherichia coli, B123) [µg/mL]	MIC [4, 13] [µg/mL]	MIC [4, 14] [µg/mL]	MIC [5, 15] [µg/mL]	MIC ([5]; with Tazobactam 4 mcg) [µg/mL]	MIC ([5]; with Tazobactam 8 mcg) [µg/mL]	MIC ([2]; E. coli 7MP, Tazobactam 0 mcg (antibiotic alone)) [µg/mL]	MIC ([3]; E. coli B-89, Tazobactam 0 mcg (antibiotic alone)) [µg/mL]	MIC ([4]; E. coli B123, Tazobactam 0 mcg (antibiotic alone)) [µg/mL]	MIC ([4]; E. coli B123, with Tazobactam 4 mcg) [µg/mL]	MIC ([4]; E. coli B123, with Tazobactam 8 mcg) [µg/mL]
CC(C)(O/N=C(\C(=O)N[C@@H]1C(=O)N2C(C(=O)[O-])=C(C[n+]3ccccc3)CS[C@H]12)c1csc(N)n1)C(=O)O [Ceftazidime]	>64	64	> 128	>64	>64	> 128	>64	64	> 128	> 128	> 64	> 64	> 128	>64	>64					
CO/N=C(\C(=O)N[C@@H]1C(=O)N2C(C(=O)O)=C(CSc3nc(=O)c(=O)[nH]n3C)CS[C@H]12)c1csc(N)n1 [Ceftriaxone]	>64	>64	> 128	>64	>64	> 128	>64	>64	> 128	> 128	> 64	> 64	128		64	>128	>128	>128	>64	>64
